Measured values from patent US6979545B2, “Method for determining chemical reactivity” (Pharmacia & Upjohn Company, priority 2000, dated 2005).
Read-outs that look alike come from different tables or passages of the source.

Legend:
[1] = fluorescein-5-maleimide (FM)/GSH competition fluorescence test; format: physicochemical; conditions: for level of fluorescence, visual observation of the cuvette: compared to a standard without the compound for screening; for electrophilic properties (conclusion): from FM/GSH fluorescence
Method: A small aliquot of fluroescein-5-maleimide (FM) in dimethyl sulfoxide (DMSO) is added to a fluorometric cuvette containing 2 ml of phosphate buffered saline at a pH of 7.40. A test compound for screening in DMSO is added to the cuvette, as is a small aliquot of GSH solution. The mixture is exposed to light at 490 nm and emission is observed through a 530 nm bandpass filter. The color of the resulting mixture is observed and the amount of fluorescence is measured.

[2] = GSH reactivity screen (mercury orange fluorescence, 96-well); format: physicochemical; conditions: for potential reactivity using the GSH reactivity screen: residual GSH by HgO fluorescence, electrophile criterion e.g. <20% GSH remaining
Method: The test compounds as listed in Table 2 to be screened are dissolved in dimethyl sulfoxide (DMSO) to a final concentration of 10 mM, and 2 μL is transferred to the wells of a polypropylene 96-well microtiter plate. […] Mercury orange (HgO) stock solution (470 μM) is prepared in acetone and stored at 4° C. […] A 48 μL aliquot of the GSH working solution is pipetted into the 96-well tray containing the test compounds to yield a final concentration of 200 μM GSH. The reaction of the test compound with the GSH is allowed to proceed for 1 h at room temperature after which time an aliquot of HgO is added to each reaction well to yield a final concentration of 50 μM GSH/HgO. […] Assay linearity is investigated by preparing a GSH standard curve in the concentration range 0 to 50 μM (final concentration). Routine sample analysis is achieved using a Biomek 2000 biorobotic system configured with six 96-well plates and 2 reagent reservoirs.
Compounds are then identified as elelctrophiles based upon a predetermined criteria of GSH consumption (e.g., <20% GSH remaining).

[3] = phosphate buffered saline pH 7.40, excitation 490 nm, emission 530 nm
[4] = test compound with 200 μM GSH, 1 h at room temperature, no metabolic activation, no glutathione transferase
[5] = test compound with 200 μM GSH, 1 h at room temperature

Structure (SMILES) | result in the GSH screen (in words) [2, 4] | also measured
O=C1C=CC(=O)N1c1cccc(C(F)(F)F)c1 |  | level of fluorescence, visual observation of the cuvette [1]: does not appreciably change; electrophilic properties (conclusion) [1]: not having electrophilic properties; reactivity of this compound toward GSH as compared to the FM standard [1, 3]: 2.95 times less
CC(=O)NC1=C(Cl)C(=O)c2ccccc2C1=O |  | level of fluorescence, visual observation of the cuvette [1]: appreciably reduced; electrophilic properties (conclusion) [1]: having electrophilic properties; reactivity of this compound toward GSH as compared to the FM standard (in words) [1, 3]: slightly greater
O=[N+]([O-])c1ccc(Cl)cc1 [1-Chloro-4-nitrobenzene] |  | result in the GSH screen (in words) [2]: non-reactive
O=[N+]([O-])c1ccc(Cl)c([N+](=O)[O-])c1 [1-chloro-2,4-dinitrobenzene] | non-reactive | 
O=[N+]([O-])c1csc(Br)n1 [2-Bromo-4-nitrothiazole] | reactive | potential reactivity using the GSH reactivity screen [2, 5]: R
N#Cc1ccc(Cl)cc1 [4-Chlorobenzonitrile] |  | result in the GSH screen (in words) [2]: non-reactive
Nc1ccc(Cl)c([N+](=O)[O-])c1 [4-chloro-3-nitroaniline] | non-reactive | 
COc1ccc(Cl)c([N+](=O)[O-])c1 [4-chloro-3-nitroanisole] | non-reactive | 
N#Cc1ccc(Cl)c([N+](=O)[O-])c1 [4-chloro-3-nitrobenzonitrile] | non-reactive | 
O=[N+]([O-])c1cc(O)ccc1Cl [4-chloro-3-nitrophenol] | non-reactive | 
c1ccccc1 [Benzene] | non-reactive | 
COc1ccc(O)c(C(C)(C)C)c1 [Butylated hydroxyanisole] | non-reactive | 
Cc1cc(C(C)(C)C)c(O)c(C(C)(C)C)c1 [Butylated hydroxytoluene] | non-reactive | 
ClC(Cl)Cl [Chloroform] |  | result in the GSH screen (in words) [2]: non-reactive
O=C(O)Cc1ccccc1Nc1c(Cl)cccc1Cl [Diclofenac] | non-reactive | 
O=C(CCCN1CCC(O)(c2ccc(Cl)cc2)CC1)c1ccc(F)cc1 [Haloperidol] | non-reactive | 
O=C1C=C(c2ccccc2)C(=O)N1 [Phenylmaleimide] | reactive | potential reactivity using the GSH reactivity screen [2, 5]: R
O=C1NC(=O)C(c2ccccc2)(c2ccccc2)N1 [Phenytoin] | non-reactive | 
CC/C(=C(\c1ccccc1)c1ccc(OCCN(C)C)cc1)c1ccccc1 [Tamoxifen] | non-reactive | 
Cc1ccccc1 [Toluene] | non-reactive | 
CC(=O)Nc1ccc(O)cc1 [acetaminophen] | non-reactive | 
C/C=C/C=O [trans Crotonaldehyde] | reactive | potential reactivity using the GSH reactivity screen [2, 5]: R
